Values after ≈ are worked out from the molar mass of the structure shown. Like-named read-outs stand apart in the source and are kept apart here.
Columns and labels:
[1] = system: S. epidermidis ATCC 12228; assay: MIC by agar dilution, S. epidermidis ATCC 12228; assay type: cell-based; details: Staphylococcus epidermidis, ATCC12228, 17 h, read-out: Minimal Inhibitory Concentration (MIC)
Outline: (§1)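 MIC is the endpoint, obtained by agar dilution after 17±1 hours at 35°-37° C. on Mueller-Hinton agar containing doubling compound concentrations; strains inoculated at 10^6 CFU per ml.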

Ps. aeruginosa DY-2 = assay: MIC by agar dilution, Ps. aeruginosa DY-2; assay type: cell-based; details: Pseudomonas aeruginosa, DY2, 17 h, read-out: Minimal Inhibitory Concentration (MIC)
Outline: as §1

Staph. aureus C-57 = assay: MIC by agar dilution, Staph. aureus C-57; assay type: cell-based; details: Staphylococcus aureus, C57, 17 h, Mueller-Hinton agar, read-out: Minimal Inhibitory Concentration (MIC)
Outline: as §1

[2] = system: Ps. aeruginosa NCTC 10490; assay: MIC by agar dilution, Ps. aeruginosa NCTC 10490; assay type: cell-based; details: Pseudomonas aeruginosa, NCTC10490, 17 h, Mueller-Hinton agar, read-out: Minimal Inhibitory Concentration (MIC)
Outline: as §1

B. subtilis ATCC 6633 = assay: MIC by agar dilution, B. subtilis ATCC 6633; assay type: cell-based; details: Bacillus subtilis, ATCC6633, 17 h, read-out: Minimal Inhibitory Concentration (MIC)
Outline: as §1

P. vulgaris NCTC 8313 = assay: MIC by agar dilution, P. vulgaris NCTC 8313; assay type: cell-based; details: Proteus vulgaris, NCTC8313, 17 h, read-out: Minimal Inhibitory Concentration (MIC)
Outline: as §1

Staph. aureus ATCC 6538P = assay: MIC by agar dilution, Staph. aureus ATCC 6538P; assay type: cell-based; details: Staphylococcus aureus, ATCC6538P, 17 h, read-out: Minimal Inhibitory Concentration (MIC)
Outline: as §1

Ent. cloacae IFO 13535 = assay: MIC by agar dilution, Ent. cloacae IFO 13535; assay type: cell-based; details: Enterobacter cloacae, IFO13535, 17 h, read-out: Minimal Inhibitory Concentration (MIC)
Outline: as §1

E. coli DY-1 = assay: MIC by agar dilution, E. coli DY-1; assay type: cell-based; details: Escherichia coli, DY1, 17 h, read-out: Minimal Inhibitory Concentration (MIC)
Outline: as §1

[3] = system: Ps. aeruginosa ATCC 10145; assay: MIC by agar dilution, Ps. aeruginosa ATCC 10145; assay type: cell-based; details: Pseudomonas aeruginosa, ATCC10145, 17 h, Mueller-Hinton agar, read-out: Minimal Inhibitory Concentration (MIC)
Outline: as §1

[4] = system: Ser. marcescens IFO 12648; assay: MIC by agar dilution, Ser. marcescens IFO 12648; assay type: cell-based; details: Serratia marcescens, IFO12648, 17 h, read-out: Minimal Inhibitory Concentration (MIC)
Outline: as §1

M. morganii DY-1 = assay: MIC by agar dilution, M. morganii DY-1; assay type: cell-based; details: Morganella morganii, DY1, 17 h, read-out: Minimal Inhibitory Concentration (MIC)
Outline: as §1

Prov. stuartii IFO 12930 = assay: MIC by agar dilution, Prov. stuartii IFO 12930; assay type: cell-based; details: Providencia stuartii, IFO12930, 17 h, Mueller-Hinton agar, read-out: Minimal Inhibitory Concentration (MIC)
Outline: as §1

Staph. aureus Smith = assay: MIC by agar dilution, Staph. aureus Smith; assay type: cell-based; details: Staphylococcus aureus, 17 h, Mueller-Hinton agar, read-out: Minimal Inhibitory Concentration (MIC)
Outline: as §1

Staph. aureus C-5216 = assay: MIC by agar dilution, Staph. aureus C-5216; assay type: cell-based; details: Staphylococcus aureus, C5216, 17 h, Mueller-Hinton agar, read-out: Minimal Inhibitory Concentration (MIC)
Outline: as §1

[5] = system: Gram-positive bacteria, in particular, Staphylococcus species; details: background art; cited from earlier work
Ent. aerogenes IFO 12979 = assay: MIC by agar dilution, Ent. aerogenes IFO 12979; assay type: cell-based; details: Klebsiella aerogenes, IFO12979, 17 h, Mueller-Hinton agar, read-out: Minimal Inhibitory Concentration (MIC)
Outline: as §1

[6] = system: Gram-negative bacteria such as Pseudomonas aeruginosa; details: background art; cited from earlier work
E. coli No. 29 = assay: MIC by agar dilution, E. coli No. 29; assay type: cell-based; details: Escherichia coli, read-out: Minimal Inhibitory Concentration (MIC)
Outline: as §1

E. coli NIHJ JC-2 = assay: MIC by agar dilution, E. coli NIHJ JC-2; assay type: cell-based; details: Escherichia coli, NIHJJC2, 17 h, read-out: Minimal Inhibitory Concentration (MIC)
Outline: as §1

Staph. aureus C-5113 = assay: MIC by agar dilution, Staph. aureus C-5113; assay type: cell-based; details: Staphylococcus aureus, C5113, 17 h, Mueller-Hinton agar, read-out: Minimal Inhibitory Concentration (MIC)
Outline: as §1

K. pneumoniae NCTC 9632 = assay: MIC by agar dilution, K. pneumoniae NCTC 9632; assay type: cell-based; details: Klebsiella pneumoniae, NCTC9632, 17 h, read-out: Minimal Inhibitory Concentration (MIC)
Outline: as §1

[7] = S. epidermidis ATCC 12228, agar dilution, Mueller-Hinton agar
[8] = Ps. aeruginosa DY-2, agar dilution, Mueller-Hinton agar
[9] = B. subtilis ATCC 6633, agar dilution, Mueller-Hinton agar
[10] = P. vulgaris NCTC 8313, agar dilution, Mueller-Hinton agar
[11] = Staph. aureus ATCC 6538P, agar dilution, Mueller-Hinton agar
[12] = Ent. cloacae IFO 13535, agar dilution, Mueller-Hinton agar
[13] = E. coli DY-1, agar dilution, Mueller-Hinton agar
[14] = Ser. marcescens IFO 12648, agar dilution, Mueller-Hinton agar
[15] = M. morganii DY-1, agar dilution, Mueller-Hinton agar
[16] = 17 h, E. coli No. 29, agar dilution, Mueller-Hinton agar
[17] = E. coli NIHJ JC-2, agar dilution, Mueller-Hinton agar
[18] = K. pneumoniae NCTC 9632, agar dilution, Mueller-Hinton agar

| MIC [1, 7] | MIC (Ps. aeruginosa DY-2; [8]) | MIC (Staph. aureus C-57) | MIC [2] | MIC (B. subtilis ATCC 6633; [9]) | MIC (P. vulgaris NCTC 8313; [10]) | MIC (Staph. aureus ATCC 6538P; [11]) | MIC (Ent. cloacae IFO 13535; [12]) | MIC (E. coli DY-1; [13]) | MIC [3] | MIC [4, 14] | MIC (M. morganii DY-1; [15]) | MIC (Prov. stuartii IFO 12930) | MIC (Staph. aureus Smith) | MIC (Staph. aureus C-5216) | MIC (Ent. aerogenes IFO 12979) | MIC (E. coli No. 29; [16]) | MIC (Staph. aureus C-5113) | Structure (SMILES) | antibacterial activities against Gram-positive bacteria, in particular Staphylococcus species [5] | antibacterial activities against Gram-negative bacteria such as Pseudomonas aeruginosa [6] | also measured |
| --- | --- | --- | --- | --- | --- | --- | --- | --- | --- | --- | --- | --- | --- | --- | --- | --- | --- | --- | --- | --- | --- |
| 0.1 µg/mL (≈ 0.22 µM) | 12.5 µg/mL (≈ 27.4 µM) | 100 µg/mL (≈ 220 µM) | 0.78 µg/mL (≈ 1.71 µM) | 0.1 µg/mL (≈ 0.22 µM) | ≤ 0.006 µg/mL | 0.78 µg/mL (≈ 1.71 µM) | 0.78 µg/mL (≈ 1.71 µM) | ≤ 0.006 µg/mL | 6.25 µg/mL (≈ 13.7 µM) | 0.05 µg/mL (≈ 0.11 µM) | 0.025 µg/mL (≈ 0.0549 µM) | ≤ 0.006 µg/mL | 1.56 µg/mL (≈ 3.43 µM) | 1.56 µg/mL (≈ 3.43 µM) | 0.025 µg/mL (≈ 0.0549 µM) | ≤ 0.006 µg/mL | 3.13 µg/mL (≈ 6.87 µM) | CO/N=C(\C(=O)N[C@@H]1C(=O)N2C(C(=O)O)=C(COC(C)=O)CS[C@H]12)c1csc(N)n1 [CTX, Cefotaxime, reference compound] | have antibacterial activities against Staphylococcus species | less effective antibacterial activities | MIC (E. coli NIHJ JC-2; [17]): 0.05 µg/mL (≈ 0.11 µM); MIC (K. pneumoniae NCTC 9632; [18]): 0.025 µg/mL (≈ 0.0549 µM) |
| 0.39 µg/mL (≈ 0.633 µM) | 25 µg/mL (≈ 40.6 µM) | 100 µg/mL (≈ 162 µM) | 6.25 µg/mL (≈ 10.2 µM) | 1.56 µg/mL (≈ 2.53 µM) | 0.05 µg/mL (≈ 0.0812 µM) | 0.39 µg/mL (≈ 0.633 µM) | 6.25 µg/mL (≈ 10.2 µM) | 0.78 µg/mL (≈ 1.27 µM) | 12.5 µg/mL (≈ 20.3 µM) | 0.39 µg/mL (≈ 0.633 µM) | 0.78 µg/mL (≈ 1.27 µM) | 0.39 µg/mL (≈ 0.633 µM) | 3.13 µg/mL (≈ 5.08 µM) | 6.25 µg/mL (≈ 10.2 µM) | 0.2 µg/mL (≈ 0.325 µM) | 1.56 µg/mL (≈ 2.53 µM) | 1.56 µg/mL (≈ 2.53 µM) | CC(C)(ON=C(C(=O)NC1C(=O)N2C(C(=O)[O-])=C(C[n+]3ccn4c(CO)ccc4c3)CSC12)c1csc(N)n1)C(=O)O (stereo not drawn) [Ex. 24, 7-β-[(Z)-2-(2-aminothiazol-4-yl)-2-(2-carboxyprop-2-oxyimino)acetamido]-3-(6hydroxymethylpyrrolo[1,2-a]pyrazinium-2-yl)methyl-3-cephem-4-carboxylate] | – | – | MIC (E. coli NIHJ JC-2; [17]): 3.13 µg/mL (≈ 5.08 µM); MIC (K. pneumoniae NCTC 9632; [18]): 0.78 µg/mL (≈ 1.27 µM) |

| Structure (SMILES) | MIC [1, 7] | MIC (Ps. aeruginosa DY-2; [8]) | MIC (Staph. aureus C-57) | MIC [2] | MIC (B. subtilis ATCC 6633; [9]) | MIC (P. vulgaris NCTC 8313; [10]) | MIC (Staph. aureus ATCC 6538P; [11]) | MIC (Ent. cloacae IFO 13535; [12]) | MIC (E. coli DY-1; [13]) | MIC [3] | MIC [4, 14] | MIC (M. morganii DY-1; [15]) | MIC (Prov. stuartii IFO 12930) | MIC (Staph. aureus Smith) | MIC (Staph. aureus C-5216) | MIC (Ent. aerogenes IFO 12979) | MIC (E. coli No. 29; [16]) | MIC (Staph. aureus C-5113) | antibacterial activities against Gram-positive bacteria, in particular Staphylococcus species [5] | antibacterial activities against Gram-negative bacteria such as Pseudomonas aeruginosa [6] | also measured |
| --- | --- | --- | --- | --- | --- | --- | --- | --- | --- | --- | --- | --- | --- | --- | --- | --- | --- | --- | --- | --- | --- |
| CC(C)(O/N=C(\C(=O)N[C@@H]1C(=O)N2C(C(=O)[O-])=C(C[n+]3ccccc3)CS[C@H]12)c1csc(N)n1)C(=O)O [CAZ, Ceftazidime, reference compound] | – | – | 100 µg/mL (≈ 183 µM) | 0.1 µg/mL (≈ 0.183 µM) | – | – | – | – | – | 0.78 µg/mL (≈ 1.43 µM) | – | – | 0.025 µg/mL (≈ 0.0457 µM) | 6.25 µg/mL (≈ 11.4 µM) | 25 µg/mL (≈ 45.7 µM) | 0.05 µg/mL (≈ 0.0915 µM) | – | 25 µg/mL (≈ 45.7 µM) | relatively inferior antibacterial activities | superior antibacterial activities | MIC [1]: 0.78 µg/mL (≈ 1.43 µM); MIC (Ps. aeruginosa DY-2): 1.56 µg/mL (≈ 2.85 µM); MIC (B. subtilis ATCC 6633): 1.56 µg/mL (≈ 2.85 µM); MIC (P. vulgaris NCTC 8313): 0.025 µg/mL (≈ 0.0457 µM); MIC (Staph. aureus ATCC 6538P): 1.56 µg/mL (≈ 2.85 µM); MIC (Ent. cloacae IFO 13535): 1.56 µg/mL (≈ 2.85 µM); MIC (E. coli DY-1): 0.05 µg/mL (≈ 0.0915 µM); MIC [4]: 0.025 µg/mL (≈ 0.0457 µM); MIC (M. morganii DY-1): 0.1 µg/mL (≈ 0.183 µM); MIC (E. coli No. 29; NO.29, 17 h): 0.1 µg/mL (≈ 0.183 µM); MIC (E. coli NIHJ JC-2): 0.2 µg/mL (≈ 0.366 µM); MIC (K. pneumoniae NCTC 9632): 0.05 µg/mL (≈ 0.0915 µM) |

Source: patent US5593984A, “Cephalosporin derivatives” (Yuhan Corporation, priority 1992, dated 1997)
